In US9309236B2, “PI-kinase inhibitors with broad spectrum anti-infective activity” (The Board of Trustees of the Leland Stanford Junior …, priority 2011, dated 2016) one finds IC50, EC50 and CC50 data, which are given here for 1 molecule.

Like-named read-outs stand apart in the source and are kept apart here. Where only a bound is given, the exact number is not on record here.

One series deals with PI3K C2a (Homo sapiens, UniProt O00443). As to the kind of experiment: PI3-kinase C2α (type II PI3-kinase alpha) kinase assay. The class given is biochemical. The procedure:
Compounds are tested in C.1.1. PI kinase assays as described by Shokat et al., “A membrane capture assay for lipid kinase activity.” Nat. Protoc.

In the next series the target is PI3K C2b (Homo sapiens, UniProt O00750). Nature of the series: PI3-kinase C2β (type II PI3-kinase beta) kinase assay. It counts as biochemical. The procedure: Compounds are tested in C.1.1. PI kinase assays as described by Shokat et al., “A membrane capture assay for lipid kinase activity.” Nat. Protoc. 2007; 2(10):2459-66.
Sequence of PI3K C2b (O00750 whole entry): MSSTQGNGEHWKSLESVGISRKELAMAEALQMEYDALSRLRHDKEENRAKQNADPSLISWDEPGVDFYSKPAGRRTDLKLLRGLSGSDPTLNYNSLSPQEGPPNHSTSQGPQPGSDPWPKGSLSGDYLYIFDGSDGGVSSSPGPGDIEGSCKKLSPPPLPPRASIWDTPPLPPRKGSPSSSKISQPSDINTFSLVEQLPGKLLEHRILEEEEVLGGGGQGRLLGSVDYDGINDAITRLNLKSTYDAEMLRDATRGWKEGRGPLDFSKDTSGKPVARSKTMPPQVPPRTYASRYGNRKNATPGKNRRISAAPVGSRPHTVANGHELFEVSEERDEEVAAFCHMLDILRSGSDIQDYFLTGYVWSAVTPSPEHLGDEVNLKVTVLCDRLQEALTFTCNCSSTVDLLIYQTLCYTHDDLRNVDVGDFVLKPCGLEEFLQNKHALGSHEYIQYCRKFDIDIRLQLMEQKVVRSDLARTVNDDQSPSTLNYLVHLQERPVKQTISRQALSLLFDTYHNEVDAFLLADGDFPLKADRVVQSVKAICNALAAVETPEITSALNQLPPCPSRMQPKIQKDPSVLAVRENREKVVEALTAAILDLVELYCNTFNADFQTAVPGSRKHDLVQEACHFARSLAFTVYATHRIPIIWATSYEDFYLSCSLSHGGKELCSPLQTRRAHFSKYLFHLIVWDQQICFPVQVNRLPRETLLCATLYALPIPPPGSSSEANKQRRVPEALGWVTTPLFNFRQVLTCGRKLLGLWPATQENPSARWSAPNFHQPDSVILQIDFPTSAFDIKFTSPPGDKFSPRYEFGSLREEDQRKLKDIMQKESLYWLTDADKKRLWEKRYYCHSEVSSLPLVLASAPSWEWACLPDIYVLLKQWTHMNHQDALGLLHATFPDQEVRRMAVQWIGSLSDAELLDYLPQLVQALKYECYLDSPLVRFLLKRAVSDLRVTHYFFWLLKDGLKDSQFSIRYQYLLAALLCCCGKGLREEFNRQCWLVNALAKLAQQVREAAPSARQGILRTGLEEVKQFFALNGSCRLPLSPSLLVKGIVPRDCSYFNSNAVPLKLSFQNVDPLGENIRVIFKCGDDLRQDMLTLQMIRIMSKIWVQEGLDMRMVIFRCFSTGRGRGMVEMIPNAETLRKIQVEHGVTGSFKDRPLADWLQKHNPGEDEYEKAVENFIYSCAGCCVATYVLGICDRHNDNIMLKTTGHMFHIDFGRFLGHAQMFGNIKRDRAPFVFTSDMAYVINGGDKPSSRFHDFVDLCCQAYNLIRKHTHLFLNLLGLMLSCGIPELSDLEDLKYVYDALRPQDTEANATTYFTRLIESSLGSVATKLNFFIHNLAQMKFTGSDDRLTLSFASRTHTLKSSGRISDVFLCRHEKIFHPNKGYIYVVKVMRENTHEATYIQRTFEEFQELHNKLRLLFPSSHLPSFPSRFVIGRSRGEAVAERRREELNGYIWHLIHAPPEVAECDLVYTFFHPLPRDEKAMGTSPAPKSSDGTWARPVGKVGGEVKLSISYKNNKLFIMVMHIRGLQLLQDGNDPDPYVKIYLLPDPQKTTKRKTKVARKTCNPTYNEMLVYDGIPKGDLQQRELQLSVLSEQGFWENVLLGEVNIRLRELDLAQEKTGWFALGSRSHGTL
The test system of another series is HAV replicon (HAV-Bla). Nature of the series: HAV assay: plating efficiency of Huh7-derived cells harboring blasticidin-selectable HAV replicon. The class given is cell-based. Background: A replicon is a self-replicating genome or part of one, used to study replication in cells.
A short description of series [1]: Cytotoxicity CC50 in HeLa cells. It counts as cell-based. The note with it: human.
For the next series, the target named is p110α-p85 complex (Homo sapiens, UniProt P42336). Nature of the series: PI3-kinase p110α-p85 complex lipid kinase assay. The conditions noted are these: read-out: IC50 PI3K 110a. It counts as biochemical.
Sequence of p110α-p85 complex (P42336 whole entry): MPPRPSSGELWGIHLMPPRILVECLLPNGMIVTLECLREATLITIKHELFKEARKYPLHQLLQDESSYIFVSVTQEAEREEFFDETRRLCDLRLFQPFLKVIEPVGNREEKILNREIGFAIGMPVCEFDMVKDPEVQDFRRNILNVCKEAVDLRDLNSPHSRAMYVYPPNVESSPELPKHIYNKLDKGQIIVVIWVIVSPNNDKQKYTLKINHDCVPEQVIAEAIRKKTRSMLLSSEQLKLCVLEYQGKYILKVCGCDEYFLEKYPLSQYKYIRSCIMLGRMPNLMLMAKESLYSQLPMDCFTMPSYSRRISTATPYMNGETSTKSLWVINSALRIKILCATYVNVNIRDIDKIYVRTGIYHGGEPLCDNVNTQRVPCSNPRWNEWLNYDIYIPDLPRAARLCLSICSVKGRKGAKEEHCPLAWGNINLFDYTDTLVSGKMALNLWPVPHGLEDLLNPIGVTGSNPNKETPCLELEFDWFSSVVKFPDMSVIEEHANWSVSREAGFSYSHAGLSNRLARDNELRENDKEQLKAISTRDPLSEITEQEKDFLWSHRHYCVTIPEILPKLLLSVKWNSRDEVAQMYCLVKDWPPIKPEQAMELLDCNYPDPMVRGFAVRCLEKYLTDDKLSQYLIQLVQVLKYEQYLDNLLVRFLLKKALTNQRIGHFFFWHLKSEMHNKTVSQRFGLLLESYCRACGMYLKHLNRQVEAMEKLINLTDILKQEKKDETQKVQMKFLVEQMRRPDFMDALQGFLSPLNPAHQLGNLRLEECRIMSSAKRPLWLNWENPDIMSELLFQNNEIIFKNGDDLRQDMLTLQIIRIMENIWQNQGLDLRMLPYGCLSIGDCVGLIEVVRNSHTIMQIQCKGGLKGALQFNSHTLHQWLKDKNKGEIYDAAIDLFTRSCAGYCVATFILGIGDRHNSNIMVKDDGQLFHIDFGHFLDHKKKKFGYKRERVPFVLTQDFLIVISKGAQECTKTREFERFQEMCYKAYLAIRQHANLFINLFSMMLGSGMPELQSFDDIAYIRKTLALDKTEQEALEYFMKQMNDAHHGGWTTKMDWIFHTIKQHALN
Sequence of p110α-p85 complex (P27986 whole entry partner): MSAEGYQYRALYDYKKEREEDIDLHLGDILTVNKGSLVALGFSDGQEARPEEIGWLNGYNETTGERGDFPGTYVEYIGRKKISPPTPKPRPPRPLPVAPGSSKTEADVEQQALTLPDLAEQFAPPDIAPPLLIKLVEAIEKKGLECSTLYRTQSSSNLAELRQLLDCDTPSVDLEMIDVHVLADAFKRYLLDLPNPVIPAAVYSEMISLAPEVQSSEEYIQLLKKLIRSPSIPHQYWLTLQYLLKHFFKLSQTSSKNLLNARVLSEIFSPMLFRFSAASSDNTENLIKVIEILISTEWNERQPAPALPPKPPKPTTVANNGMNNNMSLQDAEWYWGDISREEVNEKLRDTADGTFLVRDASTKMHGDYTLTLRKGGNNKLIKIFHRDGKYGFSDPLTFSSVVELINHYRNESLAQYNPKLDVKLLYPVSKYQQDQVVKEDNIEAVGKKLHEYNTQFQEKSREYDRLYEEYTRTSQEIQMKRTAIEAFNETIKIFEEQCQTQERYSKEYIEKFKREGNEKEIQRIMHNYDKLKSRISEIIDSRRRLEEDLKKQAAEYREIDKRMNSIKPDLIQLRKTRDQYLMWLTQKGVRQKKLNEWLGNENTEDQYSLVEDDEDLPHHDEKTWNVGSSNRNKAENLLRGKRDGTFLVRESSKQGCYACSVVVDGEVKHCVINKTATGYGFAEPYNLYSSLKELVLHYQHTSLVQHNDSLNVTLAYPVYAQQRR
The next series concerns the target HA-tagged human PI4KIIIα (Homo sapiens, UniProt P42356). Nature of the series: PI4KIIIα immunoprecipitate kinase assay with [γ-32P]-ATP. The class given is biochemical. The note with it: in vitro enzyme assays; read-out: IC50 PI4KIIIα.

Sequence of PI3K C2a (O00443 whole entry): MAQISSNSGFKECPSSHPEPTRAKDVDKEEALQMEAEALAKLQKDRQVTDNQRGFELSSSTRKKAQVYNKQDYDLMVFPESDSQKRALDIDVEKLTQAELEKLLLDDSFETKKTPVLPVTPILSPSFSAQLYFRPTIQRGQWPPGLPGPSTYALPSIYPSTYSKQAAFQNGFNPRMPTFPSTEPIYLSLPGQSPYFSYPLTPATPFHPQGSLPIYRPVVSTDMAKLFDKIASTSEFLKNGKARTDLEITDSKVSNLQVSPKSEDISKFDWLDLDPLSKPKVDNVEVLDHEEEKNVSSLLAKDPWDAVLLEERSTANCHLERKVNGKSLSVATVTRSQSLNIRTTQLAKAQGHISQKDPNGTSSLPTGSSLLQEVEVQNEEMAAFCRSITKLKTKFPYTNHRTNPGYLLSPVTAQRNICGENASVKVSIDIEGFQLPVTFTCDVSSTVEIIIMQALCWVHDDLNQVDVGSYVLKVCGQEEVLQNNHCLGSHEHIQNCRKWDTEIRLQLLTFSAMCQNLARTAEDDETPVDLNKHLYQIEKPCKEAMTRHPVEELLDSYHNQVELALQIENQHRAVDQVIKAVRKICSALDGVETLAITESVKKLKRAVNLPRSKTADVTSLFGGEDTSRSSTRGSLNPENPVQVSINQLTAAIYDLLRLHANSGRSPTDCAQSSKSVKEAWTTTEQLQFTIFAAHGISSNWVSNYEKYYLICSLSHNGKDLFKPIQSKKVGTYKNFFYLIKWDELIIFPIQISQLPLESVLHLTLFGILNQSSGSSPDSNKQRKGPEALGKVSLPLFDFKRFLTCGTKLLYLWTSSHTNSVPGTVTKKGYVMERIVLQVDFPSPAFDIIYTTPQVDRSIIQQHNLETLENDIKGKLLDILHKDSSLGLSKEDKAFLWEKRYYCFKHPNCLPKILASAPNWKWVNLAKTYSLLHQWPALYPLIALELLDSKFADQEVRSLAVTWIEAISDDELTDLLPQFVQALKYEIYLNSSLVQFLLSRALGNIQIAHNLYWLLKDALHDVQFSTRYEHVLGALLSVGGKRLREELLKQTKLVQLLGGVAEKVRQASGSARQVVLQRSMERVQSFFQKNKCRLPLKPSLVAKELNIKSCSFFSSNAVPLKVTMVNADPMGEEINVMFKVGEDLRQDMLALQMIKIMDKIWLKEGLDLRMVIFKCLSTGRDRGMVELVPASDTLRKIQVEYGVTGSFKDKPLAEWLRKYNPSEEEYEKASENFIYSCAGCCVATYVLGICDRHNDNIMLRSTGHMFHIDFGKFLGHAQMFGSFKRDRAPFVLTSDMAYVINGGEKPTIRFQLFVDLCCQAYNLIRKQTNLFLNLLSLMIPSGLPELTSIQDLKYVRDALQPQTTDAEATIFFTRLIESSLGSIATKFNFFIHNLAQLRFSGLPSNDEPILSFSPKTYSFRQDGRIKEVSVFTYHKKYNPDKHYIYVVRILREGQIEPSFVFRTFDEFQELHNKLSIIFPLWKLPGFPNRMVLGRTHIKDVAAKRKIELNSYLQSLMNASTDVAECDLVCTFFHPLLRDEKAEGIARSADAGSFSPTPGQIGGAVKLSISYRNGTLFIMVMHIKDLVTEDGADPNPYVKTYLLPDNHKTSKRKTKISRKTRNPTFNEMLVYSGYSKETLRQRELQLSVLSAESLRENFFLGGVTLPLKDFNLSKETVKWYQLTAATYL

Consider `COc1ccc(-c2sc(NC(=O)C3CCCC3)nc2C)cc1S(=O)(=O)Nc1ccc(O)cc1` [PT423], for which the concentration for half-maximal inhibition (IC50) against PI3K C2a is above 10000 nM; at PI3K C2b it was 28 nM; on p110α-p85 complex, 65 nM; on HA-tagged human PI4KIIIα, 1750 nM. For the same molecule, the EC50 in the series on HAV replicon (HAV-Bla) (336 h, read-out: EC50 (concentration at which plating efficiency is decreased by 50%), HAV-Bla cells, over two weeks culture) is below 50 nM; with HAV replicon (HAV-Bla) (read-out: (column without head; EC50 HAV)) it was below 50 nM. This molecule also showed a CC50 in series [1] of 12600 nM.

For orientation: IC50 means the concentration needed to halve the response being measured. As a reminder, the CC50 is the concentration giving 50% cytotoxicity. Lower therefore signals harm at low concentration.
